The record followed here is ChEMBL document CHEMBL5096207, “Identification of a Hydroxypyrimidinone Compound (21) as a Potent APJ Receptor Agonist for the Potential Treatment of Heart Failure” (J Med Chem, 2021).

Series [1] is described as follows: Volume of distribution in overnight fasted Sprague-Dawley rat at 1 mg/kg, po or 1 mg/kg, iv measured upto 48 hrs by LC/MS/MS analysis. The class given is ADME, organism-based. The following applies: in vivo.
A short description of series [2]: Cmax in overnight fasted Sprague-Dawley rat at 1 mg/kg, po or 1 mg/kg, iv measured upto 48 hrs by LC/MS/MS analysis. The class given is ADME, organism-based. Further details: time < 48 hrs, dose 1 mg/kg, route po. The following applies: in vivo.
Series [3] can be described thus: AUC (0 to 24hrs) in overnight fasted Sprague-Dawley rat at 1 mg/kg, po or 1 mg/kg, iv measured upto 48 hrs by LC/MS/MS analysis. Format: ADME, organism-based. Further details: time < 48 hrs, dose 1 mg/kg, route po. The following applies: in vivo.
The nature of series [4]: Oral bioavailability in overnight fasted Sprague-Dawley rat at 1 mg/kg measured upto 48 hrs by LC/MS/MS analysis. The following applies: in vivo. The class given is ADME, organism-based.
Series [5] is described as follows: Volume of distribution at steady state in overnight fasted cynomolgus monkey at 3 mg/kg, po or 1 mg/kg, iv measured upto 72 hrs by LC/MS/MS analysis. Format: ADME, organism-based, Macaca fascicularis. The following applies: in vivo.
Series [6] in a line: Cmax in overnight fasted cynomolgus monkey at 3 mg/kg, po or 1 mg/kg, iv measured upto 72 hrs by LC/MS/MS analysis. Format: ADME, organism-based, Macaca fascicularis. The arrangement: time < 72 hrs, dose 3 mg/kg, route po. The following applies: in vivo.
The nature of series [7]: AUC (0 to 24hrs) in overnight fasted cynomolgus monkey at 3 mg/kg, po or 1 mg/kg, iv measured upto 72 hrs by LC/MS/MS analysis. The following applies: in vivo. Format: ADME, organism-based, Macaca fascicularis. Further details: time < 72 hrs, dose 3 mg/kg, route po.
The nature of series [8]: Oral bioavailability in overnight fasted cynomolgus monkey at 3 mg/kg measured upto 72 hrs by LC/MS/MS analysis. The following applies: in vivo. Format: ADME, organism-based, Macaca fascicularis.
Series [9] in a line: Volume of distribution at steady state in dog at 1 mg/kg, po or 1 mg/kg, iv by LC/MS/MS analysis. Format: ADME, organism-based, Canis lupus familiaris. The following applies: in vivo.
Series [10] in a line: Cmax in dog at 1 mg/kg, po or 1 mg/kg, iv by LC/MS/MS analysis. Format: ADME, organism-based, Canis lupus familiaris. The arrangement: dose 1 mg/kg, route po. The following applies: in vivo.
A short description of series [11]: AUC (0 to 24hrs) in dog at 1 mg/kg, po or 1 mg/kg, iv by LC/MS/MS analysis. Format: ADME, organism-based, Canis lupus familiaris. Further details: dose 1 mg/kg, route po. The following applies: in vivo.
Series [12] can be described thus: Oral bioavailability in dog at 1 mg/kg by LC/MS/MS analysis. The class given is ADME, organism-based, Canis lupus familiaris. The following applies: in vivo.
A short description of series [13]: Drug excretion in Sprague-Dawley rat urine at 1 mg/kg, iv. The class given is ADME, organism-based. The following applies: read-out: Drug excretion.
Series [14] is described as follows: Drug excretion in dog urine at 1 mg/kg, iv. The class given is ADME, organism-based, Canis lupus familiaris. The following applies: read-out: Drug excretion.
The nature of series [15]: Toxicity in Sprague-Dawley rat assessed as hemodynamic reponse by measuring increase in heart rate at 0.001 to 0.1 mg/kg/min, iv infusion administered for 15 mins by PV-loop based analysis. The class given is organism-based. The following applies: in vivo, dose 0.001-0.1 mg/kg/min.
For another series, the target named is T1, Apelin receptor (Homo sapiens, UniProt P35414).
T1 sequence (P35414 whole entry): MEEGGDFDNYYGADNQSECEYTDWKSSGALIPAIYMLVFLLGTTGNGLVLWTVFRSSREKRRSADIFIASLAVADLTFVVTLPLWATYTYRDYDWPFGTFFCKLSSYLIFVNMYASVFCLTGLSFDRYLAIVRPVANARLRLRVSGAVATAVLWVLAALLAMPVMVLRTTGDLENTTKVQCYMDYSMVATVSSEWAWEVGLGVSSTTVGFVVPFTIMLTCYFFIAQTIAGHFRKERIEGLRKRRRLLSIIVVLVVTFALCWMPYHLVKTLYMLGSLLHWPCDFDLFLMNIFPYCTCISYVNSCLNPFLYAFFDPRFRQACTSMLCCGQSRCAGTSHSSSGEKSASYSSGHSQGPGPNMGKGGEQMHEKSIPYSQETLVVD
Kind of series: Agonist activity at human APJ expressed in HEK293 cells assessed as inhibition of forskolin-stimulated cAMP production incubated for 60 mins by fluorescence based analysis. On the technique in general: Changes in cAMP serve as a functional read-out for many G protein-coupled receptors.

The structures appear in SMILES notation. pEC50: −log10 of the molar value.

For `CCc1cccc(CC)c1-n1c(-c2ccn(C)n2)nc(=O)c(C(=O)N2CC[C@@H](c3ncc(Cl)cc3F)C2)c1O`, the Vdss is 1.6 L/kg in series [1], 0.2 L/kg in series [5] and 0.2 L/kg in series [9]. For the same molecule, the highest concentration (Cmax) in [2] was found to be 2200 nM; in [6] it was 1400 nM; in [10] it was 6500 nM. Moreover, the AUC(0-t) at 48 h in [3] is 3.7 µM·h. For the same molecule, the bioavailability in series [4] is 54%; in [8] it was 27%; in series [12], 76%. This molecule also showed an AUC(0-t) at 72 h in [7] of 2.5 µM·h. This molecule returned an exposure AUC(0-t) in series [11] of 14.2 µM·h. For the same molecule, the figures for the dose excreted in series [13] and in series [14] were 4% and under 4%, respectively. Moreover, the Activity result in series [15] is reported as “Non-Toxic”.
`CCOCc1nc(=O)c(C(=O)N2CC[C@H](c3ccccc3)C2)c(O)n1-c1c(OC)cccc1OC`: the pEC50 on Apelin receptor was 9.40.
Turning to `CC(CCc1ccc(O)cc1)NCCc1ccc(O)c(O)c1` (configuration not stated) [DOBUTAMINE], in series [15], the Activity result was “Toxic”.

A word on the Cmax: it is the peak of the concentration-time curve. One may read the AUC(0-t) as exposure summed from dosing to a finite time, without extrapolation to infinity. What is called bioavailability is the share of a dose that reaches the circulation, judged against a reference dose that is usually intravenous. What is called pEC50 is −log10 of the EC50, conventionally taken in molar units.
